# Data published in ChEMBL document CHEMBL5380860, “Design, Synthesis, and Antitumor Activity of Potent and Selective EGFR L858R/T790M Inhibitors and Identification of a Combination Therapy to Overcome Acquired Resistance in Models of Non-small-cell Lung Cancer” (J Med Chem, 2023).
# pIC50: −log10 of the molar value.
# Test system: NCI-H1975
# Experiment: Antiproliferative activity against human NCI-H1975 cells harboring EGFR L858R/T790M mutant assessed as reduction in cell viability measured after 72 hrs by MTT assay
# Format: functional, cell-based
# Conditions: NCI-H1975, 72 h
row,Compound,pIC50
1,C=CC(=O)Nc1cccc(Nc2nc(Nc3ccc(N(C)C)cc3)nc3ccc(Cl)cc23)c1,5.64
2,C=CC(=O)Nc1cccc(Nc2nc(Nc3ccc(N4CCN(CC)CC4)cc3)nc3ccc(Cl)cc23)c1,7.68
3,C=CC(=O)Nc1cccc(Nc2nc(Nc3ccc(N4CCN(C)CC4)cc3)nc3ccc(Cl)cc23)c1,7.77
4,C=CC(=O)Nc1cccc(Nc2nc(Nc3ccc(N(C)CCN(C)C)cc3OC)nc3ccc(F)cc23)c1,5.06
5,C=CC(=O)Nc1cccc(Nc2nc(Nc3ccc(N4CCC(N5CCN(C)CC5)CC4)cc3)nc3ccc(Cl)cc23)c1,7.55
6,C=CC(=O)Nc1cccc(Nc2nc(Nc3ccc(N4CCN(C)CC4)cc3)nc3c2CCN(C(=O)OC(C)(C)C)C3)c1,< 5.00
7,C=CC(=O)Nc1cccc(Nc2nc(Nc3ccc(N4CCN(C)CC4)cc3)nc3ccc(C)cc23)c1,5.70
8,C=CC(=O)Nc1cccc(Nc2nc(Nc3ccc(N4CCN(C)CC4)cc3)nc3c2CCCC3)c1,5.47
9,C=CC(=O)Nc1cccc(Nc2nc(Nc3ccc(N4CCN(C)CC4)cc3)nc3ccc([N+](=O)[O-])cc23)c1,5.20

# Test system: HCC827
# Experiment: Antiproliferative activity against human HCC827 cells harboring EGFR exon del 19 mutant assessed as reduction in cell viability measured after 72 hrs by MTT assay
# Format: functional, cell-based
# Conditions: HCC827, 72 h
row,Compound,pIC50
1,C=CC(=O)Nc1cccc(Nc2nc(Nc3ccc(N4CCN(CC)CC4)cc3)nc3ccc(Cl)cc23)c1,7.92
2,C=CC(=O)Nc1cccc(Nc2nc(Nc3ccc(N4CCN(C)CC4)cc3)nc3ccc(Cl)cc23)c1,7.89
3,C=CC(=O)Nc1cccc(Nc2nc(Nc3ccc(N(C)CCN(C)C)cc3OC)nc3ccc(F)cc23)c1,5.18
4,C=CC(=O)Nc1cccc(Nc2nc(Nc3ccc(N4CCC(N5CCN(C)CC5)CC4)cc3)nc3ccc(Cl)cc23)c1,7.60
5,C=CC(=O)Nc1cccc(Nc2nc(Nc3ccc(N4CCN(C)CC4)cc3)nc3c2CCN(C(=O)OC(C)(C)C)C3)c1,< 5.00
6,C=CC(=O)Nc1cccc(Nc2nc(Nc3ccc(N4CCN(C)CC4)cc3)nc3ccc(C)cc23)c1,5.81
7,C=CC(=O)Nc1cccc(Nc2nc(Nc3ccc(N4CCN(C)CC4)cc3)nc3c2CCCC3)c1,5.64
8,C=CC(=O)Nc1cccc(Nc2nc(Nc3ccc(N4CCN(C)CC4)cc3)nc3ccc([N+](=O)[O-])cc23)c1,5.43

# Test system: not listed separately
# Experiment: Cytotoxicity against human A549 cells harboring wild type EGFR assessed as reduction in cell viability measured after 72 hrs by MTT assay
# Format: toxicity, cell-based
# Conditions: not given
row,Compound,IC50 at 72 h [nM]
1,C=CC(=O)Nc1cccc(Nc2nc(Nc3ccc(N(C)C)cc3)nc3ccc(Cl)cc23)c1,> 10000
2,C=CC(=O)Nc1cccc(Nc2nc(Nc3ccc(N4CCN(CC)CC4)cc3)nc3ccc(Cl)cc23)c1,672
3,C=CC(=O)Nc1cccc(Nc2nc(Nc3ccc(N4CCN(C)CC4)cc3)nc3ccc(Cl)cc23)c1,816
4,C=CC(=O)Nc1cccc(Nc2nc(Nc3ccc(N(C)CCN(C)C)cc3OC)nc3ccc(F)cc23)c1,> 10000
5,C=CC(=O)Nc1cccc(Nc2nc(Nc3ccc(N4CCC(N5CCN(C)CC5)CC4)cc3)nc3ccc(Cl)cc23)c1,2100
6,C=CC(=O)Nc1cccc(Nc2nc(Nc3ccc(N4CCN(C)CC4)cc3)nc3c2CCN(C(=O)OC(C)(C)C)C3)c1,> 10000
7,C=CC(=O)Nc1cccc(Nc2nc(Nc3ccc(N4CCN(C)CC4)cc3)nc3ccc(C)cc23)c1,2310
8,C=CC(=O)Nc1cccc(Nc2nc(Nc3ccc(N4CCN(C)CC4)cc3)nc3c2CCCC3)c1,5640
9,C=CC(=O)Nc1cccc(Nc2nc(Nc3ccc(N4CCN(C)CC4)cc3)nc3ccc([N+](=O)[O-])cc23)c1,> 10000

# Test system: not listed separately
# Experiment: Cytotoxicity against human A-431 cells harboring wild type EGFR assessed as reduction in cell viability measured after 72 hrs by MTT assay
# Format: toxicity, cell-based
# Conditions: not given
row,Compound,IC50 at 72 h [nM]
1,C=CC(=O)Nc1cccc(Nc2nc(Nc3ccc(N4CCN(CC)CC4)cc3)nc3ccc(Cl)cc23)c1,735
2,C=CC(=O)Nc1cccc(Nc2nc(Nc3ccc(N4CCN(C)CC4)cc3)nc3ccc(Cl)cc23)c1,1240
3,C=CC(=O)Nc1cccc(Nc2nc(Nc3ccc(N(C)CCN(C)C)cc3OC)nc3ccc(F)cc23)c1,> 10000
4,C=CC(=O)Nc1cccc(Nc2nc(Nc3ccc(N4CCC(N5CCN(C)CC5)CC4)cc3)nc3ccc(Cl)cc23)c1,1620
5,C=CC(=O)Nc1cccc(Nc2nc(Nc3ccc(N4CCN(C)CC4)cc3)nc3c2CCN(C(=O)OC(C)(C)C)C3)c1,> 10000
6,C=CC(=O)Nc1cccc(Nc2nc(Nc3ccc(N4CCN(C)CC4)cc3)nc3ccc(C)cc23)c1,1100
7,C=CC(=O)Nc1cccc(Nc2nc(Nc3ccc(N4CCN(C)CC4)cc3)nc3c2CCCC3)c1,4560
8,C=CC(=O)Nc1cccc(Nc2nc(Nc3ccc(N4CCN(C)CC4)cc3)nc3ccc([N+](=O)[O-])cc23)c1,> 10000

# Test system: not listed separately
# Experiment: Selectivity ratio of IC50 for cytotoxicity against human A549 cells harboring wild type EGFR to IC50 for antiproliferative activity against human NCI-H1975 cells harboring EGFR L858R/T790M mutant
# Format: toxicity, cell-based
# Conditions: read-out: Ratio IC50
row,Compound,selectivity ratio
1,C=CC(=O)Nc1cccc(Nc2nc(Nc3ccc(N4CCN(CC)CC4)cc3)nc3ccc(Cl)cc23)c1,32
2,C=CC(=O)Nc1cccc(Nc2nc(Nc3ccc(N4CCN(C)CC4)cc3)nc3ccc(Cl)cc23)c1,48

# Test system: not listed separately
# Experiment: Selectivity ratio of IC50 for cytotoxicity against human A-431 cells harboring wild type EGFR to IC50 for antiproliferative activity against human NCI-H1975 cells harboring EGFR L858R/T790M mutant
# Format: toxicity, cell-based
# Conditions: read-out: Ratio IC50
row,Compound,selectivity ratio
1,C=CC(=O)Nc1cccc(Nc2nc(Nc3ccc(N4CCN(CC)CC4)cc3)nc3ccc(Cl)cc23)c1,35
2,C=CC(=O)Nc1cccc(Nc2nc(Nc3ccc(N4CCN(C)CC4)cc3)nc3ccc(Cl)cc23)c1,73

# Target: Epidermal growth factor receptor (Homo sapiens, UniProt P00533)
# Sequence (P00533 whole entry, the tested form may be a part): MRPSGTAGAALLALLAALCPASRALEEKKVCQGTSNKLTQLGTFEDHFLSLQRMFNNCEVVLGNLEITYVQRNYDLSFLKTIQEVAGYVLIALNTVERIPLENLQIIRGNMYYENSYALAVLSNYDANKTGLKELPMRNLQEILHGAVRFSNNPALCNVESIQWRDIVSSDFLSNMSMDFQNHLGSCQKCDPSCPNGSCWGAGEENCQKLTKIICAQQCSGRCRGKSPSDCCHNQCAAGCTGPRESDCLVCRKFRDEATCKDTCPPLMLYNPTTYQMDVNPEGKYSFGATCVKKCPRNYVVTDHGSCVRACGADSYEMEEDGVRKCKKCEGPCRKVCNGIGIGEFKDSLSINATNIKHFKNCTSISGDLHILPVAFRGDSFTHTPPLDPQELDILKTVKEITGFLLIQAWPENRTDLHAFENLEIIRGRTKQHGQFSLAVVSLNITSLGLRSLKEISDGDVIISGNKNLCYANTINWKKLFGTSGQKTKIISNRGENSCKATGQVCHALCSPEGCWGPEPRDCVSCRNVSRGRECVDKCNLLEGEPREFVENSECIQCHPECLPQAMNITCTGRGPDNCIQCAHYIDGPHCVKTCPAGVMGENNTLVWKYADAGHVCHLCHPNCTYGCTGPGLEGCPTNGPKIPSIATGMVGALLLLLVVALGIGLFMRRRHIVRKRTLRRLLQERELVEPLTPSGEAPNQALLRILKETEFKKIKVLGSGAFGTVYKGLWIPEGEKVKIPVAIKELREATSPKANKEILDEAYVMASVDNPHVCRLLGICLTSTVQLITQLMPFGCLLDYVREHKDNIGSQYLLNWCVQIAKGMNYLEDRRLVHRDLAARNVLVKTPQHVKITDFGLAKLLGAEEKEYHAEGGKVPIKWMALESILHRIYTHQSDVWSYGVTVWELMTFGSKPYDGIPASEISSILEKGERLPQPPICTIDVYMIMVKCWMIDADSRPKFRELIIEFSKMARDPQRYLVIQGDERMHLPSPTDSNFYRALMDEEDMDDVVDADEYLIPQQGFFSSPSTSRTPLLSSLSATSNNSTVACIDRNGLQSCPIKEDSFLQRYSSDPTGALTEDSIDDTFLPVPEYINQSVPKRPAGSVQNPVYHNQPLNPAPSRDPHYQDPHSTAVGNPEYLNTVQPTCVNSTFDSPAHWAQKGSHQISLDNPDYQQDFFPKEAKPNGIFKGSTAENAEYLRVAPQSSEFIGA
# Experiment: Inhibition of human wild type partial length EGFR (R669 to V1011 residues) expressed in bacterial expression system by KINOMEscan analysis
# Format: toxicity
# Conditions: not given
row,Compound,pIC50
1,C=CC(=O)Nc1cccc(Nc2nc(Nc3ccc(N(C)C)cc3)nc3ccc(Cl)cc23)c1,< 5.00

# Target: Epidermal growth factor receptor (Homo sapiens, UniProt P00533, L858R/T790M)
# Sequence (P00533 25-1210 T790M/L858R limits assumed): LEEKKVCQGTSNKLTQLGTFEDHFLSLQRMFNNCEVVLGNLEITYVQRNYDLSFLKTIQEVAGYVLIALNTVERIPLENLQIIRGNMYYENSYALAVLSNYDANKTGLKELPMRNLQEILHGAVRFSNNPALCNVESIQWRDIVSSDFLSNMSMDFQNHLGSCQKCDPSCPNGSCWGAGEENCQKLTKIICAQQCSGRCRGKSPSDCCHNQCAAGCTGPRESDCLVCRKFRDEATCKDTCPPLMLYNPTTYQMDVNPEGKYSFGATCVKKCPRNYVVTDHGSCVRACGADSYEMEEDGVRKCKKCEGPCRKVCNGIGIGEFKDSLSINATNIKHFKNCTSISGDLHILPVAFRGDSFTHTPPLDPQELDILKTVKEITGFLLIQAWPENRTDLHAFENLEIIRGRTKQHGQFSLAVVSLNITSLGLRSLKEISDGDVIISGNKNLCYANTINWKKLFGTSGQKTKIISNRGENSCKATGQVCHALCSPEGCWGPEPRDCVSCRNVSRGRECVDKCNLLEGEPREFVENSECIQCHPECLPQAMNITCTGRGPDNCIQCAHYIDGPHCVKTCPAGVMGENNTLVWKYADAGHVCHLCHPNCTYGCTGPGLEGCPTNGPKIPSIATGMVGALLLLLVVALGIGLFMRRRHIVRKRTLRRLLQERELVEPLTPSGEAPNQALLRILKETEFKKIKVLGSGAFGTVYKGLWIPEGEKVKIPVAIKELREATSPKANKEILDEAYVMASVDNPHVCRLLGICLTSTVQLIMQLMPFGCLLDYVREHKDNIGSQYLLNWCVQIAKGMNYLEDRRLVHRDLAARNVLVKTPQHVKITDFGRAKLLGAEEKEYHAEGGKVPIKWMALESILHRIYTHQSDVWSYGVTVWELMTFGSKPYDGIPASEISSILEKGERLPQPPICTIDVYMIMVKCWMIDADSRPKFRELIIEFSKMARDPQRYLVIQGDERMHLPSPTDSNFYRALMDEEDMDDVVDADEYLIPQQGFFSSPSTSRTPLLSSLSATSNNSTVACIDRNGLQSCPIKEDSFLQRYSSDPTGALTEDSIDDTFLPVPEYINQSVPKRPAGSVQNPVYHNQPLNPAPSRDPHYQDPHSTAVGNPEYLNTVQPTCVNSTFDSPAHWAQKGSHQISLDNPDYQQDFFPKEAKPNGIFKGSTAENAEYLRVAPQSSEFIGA
# Experiment: Inhibition of human partial length EGFR (R669 to V1011 residues) L858R/T790M mutant expressed in mammalian expression system by KINOMEscan analysis
# Conditions: not given
row,Compound,pIC50
1,C=CC(=O)Nc1cccc(Nc2nc(Nc3ccc(N(C)C)cc3)nc3ccc(Cl)cc23)c1,5.74
